Results published in US6274615A, “Method for delaying the onset of alheimer's disease and for treatment or delaying the onset of other amyloidosis-related diseases/disorders” (South Alabama Medical Science Foundation, priority 1999, dated 2001).
Entries after “also recorded” stand apart in the source; their conditions may differ. Read-outs that look alike come from different tables or passages of the source.

Assays:
Aβ1-40 [1] = molecular target: T1, Aβ1-40 (Homo sapiens, UniProt P05067); test: Electron microscopy of Aβ1-40 amyloid fibril formation; type: biochemical
T1 construct: aggregates to fibrils
Source text: Bar is 200 nm. […] EM grids were extensively and carefully examined, and a negative result was only documented when fibrils were totally absent from the grids.

Aβ1-42 [2] = molecular target: T2, Aβ1-42 (Homo sapiens, UniProt P05067); test: Circular dichroism spectroscopy of Aβ1-42 (secondary structure); settings: for structural changes (secondary structure): Aβ1-42 250 μM + 100 μM compound, time 0 and 4 h; for amount of β-sheet structures: Aβ1-42 250 μM + melatonin 100 μM
T2 construct: aggregates to fibrils
Procedure: (§1) The corresponding percentages of the different secondary structure motifs are shown for Aβ1-40 at time 0 in (FIG. 1C) and 24 hours (FIG. 1D) and for Aβ1-42 at time 0 (FIG. 1G) and 4 hours (FIG. 1H). An average of 40 scans/independent experimental condition was obtained. An independent experiment yielded qualitatively similar data.
(§2) Peptides Aβ1-40 and Aβ1-42 were synthesized in the W. M. Keck Foundation (Yale University, Conn.), and their purity was evaluated by amino acid sequence and laser […] mass spectrometry as described (Soto et al., 1996).
(§3) Spectra in the far ultraviolet light (190-250 nm) were recorded at various time intervals with a Jasco-720 spectropolarimeter as described (Soto et al., 1996) using a cell path of 0.01 cm. […] 40 scans/experimental condition were obtained at 0.2 nm intervals over the wavelength range 190-250 nm. The data were analyzed by the Lincomb algorithm (Perczel et al., 1992) to obtain the percentages of the different secondary structure motifs.

Aβ1-40 [3] = molecular target: T1, Aβ1-40; test: Circular dichroism spectroscopy of Aβ1-40 (secondary structure); settings: for structural changes (secondary structure) / change of random conformation / change of β-sheet content: Aβ1-40 250 μM + 100 μM compound; for structural changes (secondary structure): 24 h; for change of random conformation / change of β-sheet content: time 0
Procedure: as §1, §2, §3

[4] = cited from earlier work
calmodulin = settings: Benitez-King et al., 1993; cited from earlier work
[5] = tested on: circadian disorders due to jet lag; settings: oral, 0.25-10 mg; Arendt et al., 1987; cited from earlier work
microtubular components = settings: Benitez-King et al., 1993; cited from earlier work
[6] = tested on: intrinsic cellular antioxidant defenses; settings: Huerto-Delgadillo et al., 1994; cited from earlier work
[7] = Tan et al., 1993, cited from earlier work
Aβ1-42 [8] = molecular target: T2, Aβ1-42; test: Electron microscopy of Aβ1-42 amyloid fibril formation; type: biochemical
Procedure: The formation of amyloid fibrils was monitored at 0, 2, and 6 h.

Aβ1-40 [9] = molecular target: T1, Aβ1-40; test: 1H NMR titration of Aβ1-40 with melatonin (binding)
Procedure: The solution conditions for the NMR and CD studies were similar, except that deuterated water (D2 O) in phosphate buffer was used in the NMR study. All ^1 H NMR spectra were obtained at 600 MHz using a Varian UnityPlus-600 spectrometer, and the data were processed using the FELIX program (version 95.0, Biosym, Inc.). The NMR solutions were prepared in D2 O (0.6 ml) with sodium phosphate buffer (5 mM, pH 7.5), perdeuterated Na2 EDTA (0.5 mM), NaN3 (0.05 mM), and 3-(trimethylsilyl) propionate-2,2,3,3-d4 (0.05 mM), the last of which serves as a internal chemical shift reference at 0 ppm. The NMR measurements were performed at 10° C. and the residual proton absorption of D2 O was suppressed by low power irradiation during the recycle delay. For all spectra, 128 scans were required with a total recycle delay of 4.2 s, which included an acquisition time and recycle delay of 2.2 and 2.0 s, respectively. The digital resolution of the acquired data was 0.24 Hz/pt, which was reduced to 0.12 Hz/pt by zero-filling the data once before processing. To further improve the resolution, before Fourier transformation spectra were multiplied by a Lorentzian-to-Gaussian weighting factor. This experiment was duplicated on two different days.

[10] = tested on: cultured neuroblastoma cells; settings: cytotoxic fragment of amyloid β-protein; Pappolla et al., 1997; cited from earlier work
[11] = Aβ1-40, incubated for up to 48 h

T1 sequence (P05067 672-711): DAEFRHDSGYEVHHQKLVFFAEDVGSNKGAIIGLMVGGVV
T2 sequence (P05067 672-713): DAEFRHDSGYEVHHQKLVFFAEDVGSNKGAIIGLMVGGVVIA

Structure (SMILES): CC(=O)NCCc1c[nH]c2ccc(O)cc12 [NAT, 5-hydroxy-N-acetyl-tryptamine]
- Aβ1-40 fibril formation (Aβ1-40 [1]; [11]): Well formed amyloid fibrils are easily recognized; also recorded: fibrils were abundant and easily identifiable
- structural changes (secondary structure) (Aβ1-42 [2]): not elicited
- structural changes (secondary structure) (Aβ1-40 [3]): no structural changes
- change of random conformation (Aβ1-40 [3]): This effect was not observed
- change of β-sheet content (Aβ1-40 [3]): This effect was not observed

Structure (SMILES): CC(C)(C)[N+]([O-])=Cc1ccccc1 [PBN, N-t-butyl-α-phenylnitrone]
- Aβ1-40 fibril formation (Aβ1-40 [1]; [11]): Well formed amyloid fibrils are easily recognized; also recorded: fibrils were abundant and easily identifiable
- Aβ1-40 fibril formation (Aβ1-40 [1]; PBN 10, 100, and 200 μM, 48 h): Fibrils were abundant in all these tubes
- structural changes (secondary structure) (Aβ1-42 [2]): not elicited
- structural changes (secondary structure) (Aβ1-40 [3]): only small effects
- change of random conformation (Aβ1-40 [3]): This effect was not observed
- change of β-sheet content (Aβ1-40 [3]): This effect was not observed

Structure (SMILES): COc1ccc2[nH]cc(CCNC(C)=O)c2c1 [melatonin, N-[2-(5-methoxy-1H-indol-3-yl)ethyl] acetamide]
- lipid solubility [4]: lipid soluble
- interaction with calmodulin (calmodulin): interacts with calmodulin
- concentration of melatonin inhibiting fibril formation in all tubes (Aβ1-40 [1]; 250 μM Aβ1-40, 48 h): above 10 μM
- Aβ1-40 fibril formation (Aβ1-40 [1]; 250 μM Aβ1-40 plus 100 μM melatonin): only amorphous material
- Aβ1-40 fibril formation (Aβ1-40 [1]; [11]): Fibrils were not formed; also recorded: no fibrils were detected
- treatment of circadian disorders due to jet lag [5]: used successfully to treat circadian disorders due to jet lag
- amount of β-sheet structures (Aβ1-42 [2]; 4 h of incubation): 59%
- amount of β-sheet structures (Aβ1-42 [2]; time 0): 65%
- interaction with microtubular components (microtubular components): interacts
- activity of intrinsic cellular antioxidant defenses [6]: increase the activity
- crossing of the blood-brain barrier [7]: passes easily across the blood-brain barrier; also recorded: crosses the blood-brain barrier with ease
- crossing of the blood-brain barrier ([7]; listed as Melatonin): rapidly crosses the blood brain barrier
- Aβ1-42 fibril formation (Aβ1-42 [8]; 250 μM Aβ1-42, 2 and 6 h): only amorphous material
- Aβ1-42 fibril formation (Aβ1-42 [8]; 6 hrs., melatonin 100 μm (so in the source)): Well formed amyloid fibrils are easily recognized in FIG. 3A, but not in FIG. 3B
- inhibition of Aβ1-42 fibril formation (Aβ1-42 [8]; melatonin 100 nM, 1 μM, 10 μM, 100 μM, and 200 μM): effective to inhibit fibril formation
- change of random conformation (Aβ1-40 [3]): immediate increase
- change of β-sheet content (Aβ1-40 [3]): markedly diminished
- β-sheet content (Aβ1-40 [3]; Aβ1-40 250 μM + melatonin 100 μM, 24 h of incubation): 24%
- site of binding on Aβ (Aβ1-40 [9]; NMR shifts with varied melatonin concentrations): not localized to a particular His site on Aβ
- exchange regime of binding (Aβ1-40 [9]; no line broadening or separate peaks for bound and free states): fast exchange limit
- prevention of cell death [10]: effective in preventing death of cultured neuroblastoma cells
- prevention of intracellular Ca^+2 increases [10]: effective in preventing
- prevention of oxidative damage [10]: effective in preventing
